Organism: Rattus norvegicus
Assay: DrugMatrix - Regimen: Daily Repeat
Assay type: toxicity, organism-based, Sprague-Dawley
Set-up: regimen Daily Repeat, gender Male, age 6-8 weeks
Settings: in vivo, po, route oral GAVAGE, vehicle 100 % WATER; for ERYTHROCYTE COUNT / HEMATOCRIT / HEMOGLOBIN / LEUKOCYTE COUNT / MEAN CORPUSCULAR HEMOGLOBIN / MEAN CORPUSCULAR HEMOGLOBIN CONCENTRATION / MEAN CORPUSCULAR VOLUME: tissue Blood; for ALKALINE PHOSPHATASE / ASPARTATE AMINOTRANSFERASE / BLOOD UREA NITROGEN / CARBON DIOXIDE / CHLORIDE / CHOLESTEROL / CREATINE PHOSPHOKINASE / CREATININE / GLUCOSE / LACTATE DEHYDROGENASE / LIPASE / PHOSPHORUS / POTASSIUM / SODIUM / TOTAL BILIRUBIN / TOTAL PROTEIN / URIC ACID: tissue Plasma
[1] = 0 mg/kg, 72 h, dose level Control, time 3 day
[2] = 0 mg/kg, 120 h, dose level Control, time 5 day
[3] = 58 mg/kg, 72 h, dose level Low, time 3 day
[4] = 58 mg/kg, 120 h, dose level Low, time 5 day

**Q.** What does the source list for `C#Cc1cccc(Nc2ncnc3cc(OCCOC)c(OCCOC)cc23)c1` [ERLOTINIB]?
**A.** ERYTHROCYTE COUNT [1]: 6.09 x10E6/uL; HEMATOCRIT [1]: 42.62%; HEMOGLOBIN [1]: 13.07 G/DL; LEUKOCYTE COUNT [1]: 13.95 x10E3/uL; MEAN CORPUSCULAR HEMOGLOBIN [1]: 21.47 pg; MEAN CORPUSCULAR HEMOGLOBIN CONCENTRATION [1]: 30.62 G/DL; MEAN CORPUSCULAR VOLUME [1]: 70.05 fL; ALKALINE PHOSPHATASE [1]: 369 u/L; ASPARTATE AMINOTRANSFERASE [1]: 86.17 u/L; BLOOD UREA NITROGEN [1]: 16.33 mg/dL; CARBON DIOXIDE [1]: 37.33 mmol/L; CHLORIDE [1]: 104.83 MEQ/L; CHOLESTEROL [1]: 79.83 mg/dL; CREATINE PHOSPHOKINASE [1]: 392.83 u/L; CREATININE [1]: 0.68 mg/dL; GLUCOSE [1]: 153.33 mg/dL; LACTATE DEHYDROGENASE [1]: 426.17 u/L; LIPASE [1]: 11.67 u/L; PHOSPHORUS [1]: 11 mg/dL; POTASSIUM [1]: 6.72 MEQ/L; SODIUM [1]: 146.67 MEQ/L; TOTAL BILIRUBIN [1]: 0.55 mg/dL; TOTAL PROTEIN [1]: 6.32 G/DL; URIC ACID [1]: 0.0167 mg/dL; ERYTHROCYTE COUNT [2]: 6.93 x10E6/uL; HEMATOCRIT [2]: 46.82%; HEMOGLOBIN [2]: 14.23 G/DL; LEUKOCYTE COUNT [2]: 13.43 x10E3/uL; MEAN CORPUSCULAR HEMOGLOBIN [2]: 20.55 pg; MEAN CORPUSCULAR HEMOGLOBIN CONCENTRATION [2]: 30.38 G/DL; MEAN CORPUSCULAR VOLUME [2]: 67.62 fL; ALKALINE PHOSPHATASE [2]: 417.83 u/L; ASPARTATE AMINOTRANSFERASE [2]: 83 u/L; BLOOD UREA NITROGEN [2]: 15.33 mg/dL; CARBON DIOXIDE [2]: 38.83 mmol/L; CHLORIDE [2]: 98.17 MEQ/L; CHOLESTEROL [2]: 66.83 mg/dL; CREATINE PHOSPHOKINASE [2]: 383.17 u/L; CREATININE [2]: 0.72 mg/dL; GLUCOSE [2]: 156.5 mg/dL; LACTATE DEHYDROGENASE [2]: 519.67 u/L; LIPASE [2]: 4.83 u/L; PHOSPHORUS [2]: 11.07 mg/dL; POTASSIUM [2]: 6.03 MEQ/L; SODIUM [2]: 138 MEQ/L; TOTAL BILIRUBIN [2]: 0.55 mg/dL; TOTAL PROTEIN [2]: 6.3 G/DL; URIC ACID [2]: 0.0833 mg/dL; ERYTHROCYTE COUNT [3]: 7.23 x10E6/uL; HEMATOCRIT [3]: 47.6%; HEMOGLOBIN [3]: 14.6 G/DL; LEUKOCYTE COUNT [3]: 17.02 x10E3/uL; MEAN CORPUSCULAR HEMOGLOBIN [3]: 20.2 pg; MEAN CORPUSCULAR HEMOGLOBIN CONCENTRATION [3]: 30.77 G/DL; MEAN CORPUSCULAR VOLUME [3]: 265.73 fL; ALKALINE PHOSPHATASE [3]: 184.67 u/L; ASPARTATE AMINOTRANSFERASE [3]: 86.33 u/L; BLOOD UREA NITROGEN [3]: 16 mg/dL; CARBON DIOXIDE [3]: 39 mmol/L; CHLORIDE [3]: 107.67 MEQ/L; CHOLESTEROL [3]: 93.67 mg/dL; CREATINE PHOSPHOKINASE [3]: 293 u/L; CREATININE [3]: 0.73 mg/dL; GLUCOSE [3]: 141.33 mg/dL; LACTATE DEHYDROGENASE [3]: 441.67 u/L; LIPASE [3]: 21.33 u/L; PHOSPHORUS [3]: 10 mg/dL; POTASSIUM [3]: 6.7 MEQ/L; SODIUM [3]: 148.67 MEQ/L; TOTAL BILIRUBIN [3]: 0.73 mg/dL; TOTAL PROTEIN [3]: 5.13 G/DL; URIC ACID [3]: 0 mg/dL; ERYTHROCYTE COUNT [4]: 7.1 x10E6/uL; HEMATOCRIT [4]: 46.07%; HEMOGLOBIN [4]: 13.83 G/DL; LEUKOCYTE COUNT [4]: 18.86 x10E3/uL; MEAN CORPUSCULAR HEMOGLOBIN [4]: 19.47 pg; MEAN CORPUSCULAR HEMOGLOBIN CONCENTRATION [4]: 29.97 G/DL; MEAN CORPUSCULAR VOLUME [4]: 64.9 fL; ALKALINE PHOSPHATASE [4]: 222 u/L; ASPARTATE AMINOTRANSFERASE [4]: 105.33 u/L; BLOOD UREA NITROGEN [4]: 14.67 mg/dL; CARBON DIOXIDE [4]: 38.67 mmol/L; CHLORIDE [4]: 100.33 MEQ/L; CHOLESTEROL [4]: 81.33 mg/dL; CREATINE PHOSPHOKINASE [4]: 332 u/L; CREATININE [4]: 0.73 mg/dL; GLUCOSE [4]: 135 mg/dL; LACTATE DEHYDROGENASE [4]: 477.67 u/L; LIPASE [4]: 16.67 u/L; PHOSPHORUS [4]: 11.53 mg/dL; POTASSIUM [4]: 6.07 MEQ/L; SODIUM [4]: 141 MEQ/L; TOTAL BILIRUBIN [4]: 0.5 mg/dL; TOTAL PROTEIN [4]: 5.57 G/DL; URIC ACID [4]: 0.1 mg/dL

From ChEMBL document CHEMBL3885881, “DrugMatrix”
